# Assay results reported in patent US12678436B2, “Pharmaceutical composition for preventing or treating fibrosis” (Daewoong Pharmaceutical Co., Ltd., priority 2021, dated 2026).
# Experiments:
# [1] = test system: animal model of pulmonary fibrosis; test: Lung function evaluation (SpO2) in BLM-administered mice; type: in vivo; conditions: for SpO2: 2 weeks, 21st day after BLM
# Method: (§1) 70-100 μL of BLM solution (bleomycin 1-3 mg/kg) was administered to a lung of the acclimatized experimental animals using a catheter for 5 days or more. In accordance with the purpose of the test, the test drug was administered 7 days after BLM administration, and the drug was orally administered for 2 weeks until the 21st day of BLM administration. Body weight, SpO2, hydroxyproline, and inflammation cell counts were measured to determine the anti-fibrotic efficacy of the active component.
# (§2) As a control group, Nintedanib (hereinafter ‘NIN’) and Pirfenidone (hereinafter ‘PID’), which are standard of care (hereinafter ‘SoC’) for idiopathic pulmonary fibrosis, were used. The effective dose of NIN used was confirmed through in vivo efficacy data in the literature published by Boehringer Ingelheim, which is a NIN development company, and the effective dose of PID was set in terms of mice based on in vivo efficacy (rat) data and 2-week repeated toxicity dose (rat) in FDA Pharmacology Review.
# This lung function evaluation is the most direct and important evaluation index that has the greatest influence on the symptoms and quality of life of patients with pulmonary fibrosis, and is an experiment that can most directly show the effect of improving lung function in an animal model of pulmonary fibrosis by measuring the oxygen concentration in the body.
# On the 21st day, it was measured with a SpO2 measuring device (Berry, Veterinary Pulse Oximeter) via the abdominal side of the mouse, and the results are shown in Table 2 and FIG. 1.
# [2] = test system: animal model of pulmonary fibrosis; test: Measurement of total collagen content in lung (INSOLUBLE Collagen Assay); type: in vivo, mice; conditions: for collagen content in lung (hydroxyproline ratio value compared with normal group): 21st day
# Method: as §1, §2
# Pulmonary fibrosis is the accumulation of collagen in the lungs to make it stiff. The main cause of pulmonary fibrosis is the accumulation of collagen, and the degree of progression of fibrosis can be predicted by measuring the collagen content in the lung tissue.
# In this experimental example, analysis was performed using INSOLUBLE Collagen Assay (Biocolor, S2000). After sacrifice on the 21st day, the cryopreserved lung tissue was pulverized by adding 100 uL of Fragmentation Reagent, and then, 100 uL of 37% HCl was added and incubated at 65°C. for 3 hours. The contents of the tube were shaken at 30 minute intervals to aid tissue disintegration. After centrifugation, the concentration was adjusted to 100 μL and collagen staining was proceeded to prepare a sample. Absorbance was measured at 560 nm.
# [3] = test system: animal model of pulmonary fibrosis; test: Histopathology (Ashcroft score) analysis of lung tissue; type: in vivo, mice; conditions: for Fibrotic Index (±SEM): 21st day, 9 individuals
# Method: as §1, §2
# The degree of fibrosis and inflammation of the lung tissue were visually observed through a microscope, and the degree of fibrosis of lung tissue was measured with a Fibrotic Index according to normalized criteria. The higher the Fibrotic Index value, the more severe the degree and symptom of fibrosis. It is interpreted that as the value is lower, the symptom is relieved.
# On the 21st day, lung tissue was separated and stained using H&E and MT stain, and observed at 200× magnification. The observed results were scored by Ashcroft (Hubner et al., 2008). The fibrotic index was calculated by dividing the sum of the adjusted Ashcroft field scores by the number of fields tested, and shown in Table 4 and FIG. 3.
# [4] = test system: animal model of pulmonary fibrosis; test: Inflammation cell count analysis in BALF; type: in vivo, mice; conditions: for Lymphocyte (BALF cell count) / Macrophage (BALF cell count) / Neutrophil (BALF cell count) / Total cell (BALF cell count): 21st day
# Method: as §1, §2
# Since fibrosis is a chronic inflammatory disease characterized by excessive collagen deposition, the infiltration of inflammatory cells was analyzed to determine the degree of inflammation in the lung tissue.
# At the sacrifice on the 21st day of administration, BALF (Bronchoalveolar lavage fluid) cells obtained through airway washing of mice were diluted with 1.05×PBS and attached to a slide, and then the slide was immersed and removed for 30 seconds in the order of 1, 2, 3 diff quick stain solution, and stained. It was counted based on 500 cells. Macrophages are the largest in size, mononuclear, and stained blue. Neutrophils and eosinophils form polynuclear cells, but eosinophils are stained red with eosin and distinguished from neutrophils. Lymphocytes have very less cytoplasm and are small in size as monocytes.
# [5] = Measurement of change in body weight in BLM-administered mice; type: in vivo; conditions: for change in body weight: 21st day
# Method: as §1, §2
# Body weight is an indirect indicator that can know the degree of improvement in the overall physical condition of the animal model. When the degree of weight loss is small, it can be inferred that the overall physical condition or symptoms of the disease are improved.
# The body weight was measured using a scale on the 21st day when the administration was completed, and the results are shown in Table 6 and FIG. 5 below.
# ICR mice = test: 2-week repeated dose toxicity test in mice; type: in vivo; conditions: for SPLEEN % to BODY WEIGHT / SPLEEN weight / THYMUS % to BODY WEIGHT / THYMUS weight: 2 weeks, male ICR mice
# Method: The active component was orally administered to acclimatized ICR mice for 7 days or more for 2 weeks.
# After administration for 2 weeks, autopsies were performed on all animals. At autopsy, the weight of each organ was measured.
# [6] = Pharmacokinetic test after single oral administration in ICR mice; type: in vivo; conditions: mouse, blood; ICR mice (male), single oral 10 mg/kg, saline
# Method: The pharmacokinetic parameters were calculated using Excel® and WinNonlin6.1 software for the blood drug concentration according to the change over time obtained through LC-MS/MS, and changes in the blood concentration of the active component are shown in Table 9 and FIG. 6.
# [7] = Human pharmacokinetics, single administration (SAD); type: in vivo; conditions: median; healthy adults, single oral 500 mg, enteric coated tablet, N = 6
# Method: (§3) The formulation used in the clinical trial was prepared in the same manner as in Preparation Examples 1 and 2.
# [8] = Human pharmacokinetics, multiple administration (MAD), Day 14; type: in vivo; conditions: for Accumulation ratio based on AUCT: Day 14, N = 6; for AUC(0-t): human, plasma, oral
# Method: as §3
# healthy adults = test: Human administration safety/drug tolerance; type: in vivo
# Method: as §3
# The safety and drug resistance of the compound of the present invention during administration to humans was confirmed in the same manner as in Experimental Example 4.
compound,measurement,setting,value
O[C@H]1CCCN[C@@H]1CCCn1cnc2c(Cl)c(Cl)ccc21 [Active component],oxygen permeation function improved compared with Vehicle,[1]; 10 mg/kg,≥ 18%
same,oxygen permeation function improved compared with Vehicle,[1]; 30 mg/kg,≥ 28%
same,SpO2,[1]; Active component 3 mg/kg oral,75.00
same,SpO2,[1]; Active component 10 mg/kg oral,77.89
same,SpO2,[1]; Active component 30 mg/kg oral,81.33
same,content of collagen in the lung compared to Vehicle,[2]; 10 mg/kg,significantly reduced
same,content of collagen in the lung compared to Vehicle,[2]; 30 mg/kg,significantly reduced
same,collagen content in lung (hydroxyproline ratio value compared with normal group),[2]; Active component 3 mg/kg oral,253.56
same,collagen content in lung (hydroxyproline ratio value compared with normal group),[2]; Active component 10 mg/kg oral,217.22
same,collagen content in lung (hydroxyproline ratio value compared with normal group),[2]; Active component 30 mg/kg oral,171.33
same,tissue improvement effect compared with NIN and PID,[3]; 10 mg/kg,tissue improvement effect equivalent to or greater than that of NIN
same,tissue improvement effect compared with NIN and PID,[3]; 30 mg/kg,tissue improvement effect equivalent to or greater than that of NIN
same,Fibrotic Index (±SEM),[3]; Active component 3 mg/kg oral,4.6 (±0.3)
same,Fibrotic Index (±SEM),[3]; Active component 10 mg/kg oral,2.7 (±0.6)
same,Fibrotic Index (±SEM),[3]; Active component 30 mg/kg oral,2.8 (±0.4)
same,number of Neutrophil cells decreased compared to Vehicle,[4]; 10 mg/kg,≥ 20%
same,total cell level improved compared to Vehicle,[4]; 10 mg/kg,≥ 20%
same,number of Neutrophil cells decreased compared to Vehicle,[4]; 30 mg/kg,≥ 60%
same,total cell level improved compared to Vehicle,[4]; 30 mg/kg,≥ 30%
same,Lymphocyte (BALF cell count),[4]; Active component 3 mg/kg oral,0.79
same,Macrophage (BALF cell count),[4]; Active component 3 mg/kg oral,7.80
same,Neutrophil (BALF cell count),[4]; Active component 3 mg/kg oral,1.74
same,Total cell (BALF cell count),[4]; Active component 3 mg/kg oral,10.32
same,Lymphocyte (BALF cell count),[4]; Active component 10 mg/kg oral,0.51
same,Macrophage (BALF cell count),[4]; Active component 10 mg/kg oral,5.60
same,Neutrophil (BALF cell count),[4]; Active component 10 mg/kg oral,1.54
same,Total cell (BALF cell count),[4]; Active component 10 mg/kg oral,7.66
same,Lymphocyte (BALF cell count),[4]; Active component 30 mg/kg oral,0.46
same,Macrophage (BALF cell count),[4]; Active component 30 mg/kg oral,4.91
same,Neutrophil (BALF cell count),[4]; Active component 30 mg/kg oral,0.82
same,Total cell (BALF cell count),[4]; Active component 30 mg/kg oral,6.19
same,degree of body weight loss compared with Vehicle group,[5]; 10 mg/kg,improved
same,degree of body weight loss compared with Vehicle group,[5]; 30 mg/kg,improved
same,change in body weight,[5]; Active component 3 mg/kg oral,−22.44
same,change in body weight,[5]; Active component 10 mg/kg oral,−19.11
same,change in body weight,[5]; Active component 30 mg/kg oral,−16.78
same,SPLEEN % to BODY WEIGHT,ICR mice; 30 mg/kg/day oral,0.22%
same,SPLEEN weight,ICR mice; 30 mg/kg/day oral,0.059
same,THYMUS % to BODY WEIGHT,ICR mice; 30 mg/kg/day oral,0.10%
same,THYMUS weight,ICR mice; 30 mg/kg/day oral,0.026
same,SPLEEN % to BODY WEIGHT,ICR mice; 60 mg/kg/day oral,0.25%
same,SPLEEN weight,ICR mice; 60 mg/kg/day oral,0.070
same,THYMUS % to BODY WEIGHT,ICR mice; 60 mg/kg/day oral,0.11%
same,THYMUS weight,ICR mice; 60 mg/kg/day oral,0.029
same,toxicity / abnormal symptoms after repeated administration for 2 weeks,"ICR mice; 30, 60, 120→90 mg/kg/day oral, ICR mice",No toxicity or significant abnormal symptoms
same,SPLEEN % to BODY WEIGHT,ICR mice; 120→90 mg/kg/day oral,0.17%
same,SPLEEN weight,ICR mice; 120→90 mg/kg/day oral,0.046
same,THYMUS % to BODY WEIGHT,ICR mice; 120→90 mg/kg/day oral,0.05%
same,THYMUS weight,ICR mice; 120→90 mg/kg/day oral,0.015
same,organ weight of spleen and thymus,ICR mice; administration group of 30 mg/kg/day or more,slight weight loss tendency
same,AUC,[6],1190 ng·h/mL
same,tmax,[7],3.01 h
same,Accumulation ratio based on AUCT,[8]; 25 mg tablet twice a day,1.94
same,Accumulation ratio based on AUCT,[8]; 50 mg tablet twice a day,2.33
same,AUCT,"[8]; 100 mg tablet twice a day, Day 14, 12 hour dosing interval, N = 6",617.40 ng·h/mL
same,Accumulation ratio based on AUCT,[8]; 100 mg tablet twice a day,1.88
same,Accumulation ratio based on AUCT,[8]; 200 mg tablet twice a day,3.75
same,AUC(0-t),"[8]; 25 mg tablet twice a day, Day 14, 12 hour dosing interval, N = 6",183 ng·h/mL
same,AUC(0-t),"[8]; 50 mg tablet twice a day, Day 14, 12 hour dosing interval, N = 6",429 ng·h/mL
same,AUC(0-t),"[8]; 200 mg tablet twice a day, Day 14, 12 hour dosing interval, N = 6",3010 ng·h/mL
same,serious abnormal signs or side effects in clinical trial,"healthy adults; 72 healthy adults, single 100-600 mg and multiple 25-200 mg twice a day",no serious abnormal signs or side effects
same,most frequent adverse reactions,"healthy adults; single administration, healthy adults","gastrointestinal adverse events including nausea, vomiting, diarrhea and abdominal pain"
"COC(=O)c1ccc2c(c1)NC(=O)/C2=C(\Nc1ccc(N(C)C(=O)CN2CCN(C)CC2)cc1)c1ccccc1 [Nintedanib, reference compound]",SpO2,[1]; Nintedanib 60 mg/kg oral,78.67
same,collagen content in lung (hydroxyproline ratio value compared with normal group),[2]; Nintedanib 60 mg/kg oral,239.78
same,Fibrotic Index (±SEM),[3]; Nintedanib 60 mg/kg oral,3.1 (±0.6)
same,Lymphocyte (BALF cell count),[4]; Nintedanib 60 mg/kg oral,0.68
same,Macrophage (BALF cell count),[4]; Nintedanib 60 mg/kg oral,5.61
same,Neutrophil (BALF cell count),[4]; Nintedanib 60 mg/kg oral,1.29
same,Total cell (BALF cell count),[4]; Nintedanib 60 mg/kg oral,7.57
same,change in body weight,[5]; Nintedanib 60 mg/kg oral,−19.44
"Cc1ccc(=O)n(-c2ccccc2)c1 [Pirfenidone, reference compound]",SpO2,[1]; Pirfenidone 200 mg/kg oral,82.00
same,collagen content in lung (hydroxyproline ratio value compared with normal group),[2]; Pirfenidone 200 mg/kg oral,177.44
same,Fibrotic Index (±SEM),[3]; Pirfenidone 200 mg/kg oral,4.1 (±0.3)
same,Lymphocyte (BALF cell count),[4]; Pirfenidone 200 mg/kg oral,0.46
same,Macrophage (BALF cell count),[4]; Pirfenidone 200 mg/kg oral,5.01
same,Neutrophil (BALF cell count),[4]; Pirfenidone 200 mg/kg oral,0.68
same,Total cell (BALF cell count),[4]; Pirfenidone 200 mg/kg oral,6.14
same,change in body weight,[5]; Pirfenidone 200 mg/kg oral,−14.67
